# From patent US6337344B1, “Indole derivatives as inhibitors or factor Xa” (Aventis Pharma Deutschland GmbH, priority 1997, dated 2002)
# Where a name gives a salt, the structure may show the parent alone.
row,Compound,melting point
1,CN(C)c1ccc(CNC(=O)c2cn(Cc3cccc(C(=N)N)c3)c3ccccc23)cc1.O=C(O)C(F)(F)F.O=C(O)C(F)(F)F,92 to 96 °C
2,C[N+](C)(C)c1ccc(CNC(=O)c2cn(Cc3cccc(C(=N)N)c3)c3ccccc23)cc1.O=C(O)C(F)(F)F.O=C([O-])C(F)(F)F,177 °C (dec.)
3,CC(=O)O.C[C@@H](NC(=O)c1cc2cc(OCc3ccccc3)ccc2n1Cc1cccc(C(=N)N)c1)c1ccccc1,72 °C (dec.)
4,CC(=O)O.N=C(N)c1cccc(Cn2c(C(=O)NCc3ccccc3)cc3ccccc32)c1,266 to 268 °C (dec.)
5,COc1cccc2c1cc(C(=O)NCCc1ccc(O)cc1)n2Cc1cccc(C(=N)N)c1.O=C(O)C(F)(F)F,140 to 142 °C
6,N=C(N)c1cccc(COC(=O)c2cc3ccccc3n2Cc2cccc(C(=N)N)c2)c1.O=C(O)C(F)(F)F.O=C(O)C(F)(F)F,258 °C
7,N=C(N)c1cccc(Cn2c(C(=O)NCc3ccc(Cl)cc3)cc3ccccc32)c1.O=C(O)C(F)(F)F,230 °C (dec.)
8,Cc1cccc2c1cc(C(=O)NCc1ccc([N+](C)(C)Cc3ccccc3)cc1)n2Cc1cccc(C(=N)N)c1.O=C(O)C(F)(F)F.O=C([O-])C(F)(F)F,113 °C (dec.)
9,CC[N+](C)(C)c1ccc(CNC(=O)c2cc3cc(F)ccc3n2Cc2cccc(C(=N)N)c2)cc1.O=C(O)C(F)(F)F.O=C([O-])C(F)(F)F,73 to 75 °C (dec.)
10,CN(C)c1ccc(CNC(=O)c2cc3cc(F)ccc3n2Cc2cccc(C(=N)N)c2)cc1.O=C(O)C(F)(F)F.O=C(O)C(F)(F)F,90 °C (dec.)
11,CC(=O)O.CC(=O)[O-].C[N+](C)(C)c1ccc(CNC(=O)c2cc3cc(F)ccc3n2Cc2cccc(C(=N)N)c2)cc1,172 °C (dec.)
12,C[N+](C)(C)c1ccc(CNC(=O)c2cc3cc(F)ccc3n2Cc2cccc(C(=N)N)c2)cc1.O=C(O)C(F)(F)F.O=C([O-])C(F)(F)F,120 to 124 °C
13,Cc1cccc2c1cc(C(=O)NCc1ccc(N(C)C)cc1)n2Cc1cccc(C(=N)N)c1.O=C(O)C(F)(F)F.O=C(O)C(F)(F)F,106 °C (dec.)
14,C[N+](C)(C)c1ccc(CNC(=O)c2cc3cc([N+](=O)[O-])ccc3n2Cc2cccc(C(=N)N)c2)cc1.O=C(O)C(F)(F)F.O=C([O-])C(F)(F)F,120 °C (dec.)
15,C[N+](C)(C)c1ccc(CNC(=O)c2cc3cc(N)ccc3n2Cc2cccc(C(=N)N)c2)cc1.O=C(O)C(F)(F)F.O=C(O)C(F)(F)F.O=C([O-])C(F)(F)F,114 °C (dec.)
16,CC(=O)O.C[N+](C)(C)c1ccc(CNC(=O)c2cc3cc(S(C)(=O)=O)ccc3n2Cc2cccc(C(=N)N)c2)cc1.O=C([O-])C(F)(F)F,70 °C (dec.)
17,CC(=O)O.CC(=O)[O-].COc1ccc2c(c1)cc(C(=O)NCc1ccc([N+](C)(C)C)cc1)n2Cc1cccc(C(=N)N)c1,94 °C (dec.)
18,COc1cccc2c1cc(C(=O)NCCc1cc[n+](C)cc1)n2Cc1cccc(C(=N)N)c1.O=C(O)C(F)(F)F.O=C([O-])C(F)(F)F,164 °C (dec.)
19,CC(=O)O.CCOC(=O)c1cc2c(C)cccc2n1Cc1cccc(C(=N)N)c1,187 °C (dec.)
20,Cl.N=C(N)c1ccc(Cn2c(C(=O)NCc3ccccc3)cc3ccccc32)cc1,266 to 268 °C (dec.)
21,N=C(N)c1cccc(Cn2c(C(N)=O)cc3ccccc32)c1.O=C(O)C(F)(F)F,278 °C (dec.)
22,N=C(N)c1ccc(Cn2c(C(=O)NCc3ccc(Cl)cc3)cc3ccccc32)cc1.O=C(O)C(F)(F)F,268 °C (dec.)
23,CC(=O)O.CC(=O)[O-].C[N+](C)(C)c1ccc(CNC(=O)c2cc3cc(F)ccc3n2Cc2cccc(C3=NCCN3)c2)cc1,51 °C (dec.)
24,COc1cccc2c1cc(C(=O)NCCc1ccncc1)n2Cc1cccc(/C(N)=N/O)c1.Cl.Cl,215 to 217 °C
25,C[N+](C)(C)c1ccc(CNC(=O)c2cc3cc(Cl)ccc3n2Cc2cccc(C(=N)N)c2)cc1.O=C(O)C(F)(F)F.O=C([O-])C(F)(F)F,112 °C (dec.)
26,C[N+](C)(C)c1ccc(CNC(=O)c2cc3cc(O)ccc3n2Cc2cccc(C(=N)N)c2)cc1.O=C(O)C(F)(F)F.O=C([O-])C(F)(F)F,78 °C (dec.)
27,C[N+](C)(Cc1ccccc1)c1ccc(CNC(=O)c2cc3cc(F)ccc3n2Cc2cccc(C(=N)N)c2)cc1.Cl.[Cl-],136 °C

row,Compound,melting point
1,C=CC[N+](C)(C)c1ccc(CNC(=O)c2cc3cc(F)ccc3n2Cc2cccc(C(=N)N)c2)cc1.CC(=O)O.[Cl-],133 °C (dec.)
2,C#CC[N+](C)(C)c1ccc(CNC(=O)c2cc3cc(F)ccc3n2Cc2cccc(C(=N)N)c2)cc1.CC(=O)O.CC(=O)[O-],109 °C (dec.)
3,CC(=O)O.CC(=O)O.Cc1cccc2c1cc(C(=O)OCc1cccc(C(=N)N)c1)n2Cc1cccc(C(=N)N)c1,53 °C (dec.)
4,CC(=O)O.CC(=O)[O-].Cc1cccc2c1cc(C(=O)NCc1ccc([N+](C)(C)C)cc1)n2Cc1cccc(C(=N)N)c1,89 °C (dec.)
5,COc1cccc2c1cc(C(=O)NCc1ccc(O)cc1)n2Cc1cccc(C(=N)N)c1.Cl,202 °C (dec.)
6,CC(=O)O.CC(=O)O.N=C(N)c1cccc(COC(=O)c2cc3cc(OCc4ccccc4)ccc3n2Cc2cccc(C(=N)N)c2)c1,147 °C (dec.)
7,N=C(N)c1cccc(CNC(=O)c2cc3cc(O)ccc3n2Cc2cccc(C(=N)N)c2)c1.O=C(O)C(F)(F)F.O=C(O)C(F)(F)F,125 °C (dec.)
8,CC(=O)O.CC(=O)[O-].C[N+](C)(C)c1ccc(CNC(=O)c2cc3c(Br)cccc3n2Cc2cccc(C(=N)N)c2)cc1,145 °C (dec.)
9,CC(=O)O.CC(=O)[O-].C[N+](C)(C)c1ccc(CNC(=O)c2cc3cc(Br)ccc3n2Cc2cccc(C(=N)N)c2)cc1,86 °C (dec.)
10,CN(C)c1ccc(CNC(=O)c2cc3ccccc3n2Cc2cccnc2)cc1,108 to 110 °C
11,C[n+]1ccc(CNC(=O)c2cc3cc(N)ccc3n2Cc2cccc(C(=N)N)c2)cc1.O=C(O)C(F)(F)F.O=C(O)C(F)(F)F.O=C([O-])C(F)(F)F,115 °C
12,N=C(N)c1cccc(Cn2c(C(=O)NCCc3ccc(Cl)cc3Cl)cc3c(O)cccc32)c1.O=C(O)C(F)(F)F,144 °C
13,N=C(N)c1cccc(CNC(=O)Cc2cn(Cc3cccc(C(=N)N)c3)c3ccccc23)c1.O=C(O)C(F)(F)F.O=C(O)C(F)(F)F,196 °C (dec.)
14,"N=C(N)c1cccc(CNC(=O)c2cc3cc(OCc4ccccc4)ccc3n2Cc2cccc(C(=N)N)c2)c1 (as salt: hydroiodid) [Example 59, 1-(3-Amidino-benzyl)-5-benzyloxy-1H-indole-2-carboxylic acid 3-amidino-benzylamide dihydroiodide]",138 °C (dec.)
15,C[N+](C)(C)c1ccc(CNC(=O)c2c(Cl)c3ccccc3n2Cc2cccc(C(=N)N)c2)cc1 (as salt: trifluoroacetic acid salt) [Example 106],57 °C
16,Cc1cc(CNC(=O)c2cc3c(O)cccc3n2Cc2cccc(C(=N)N)c2)cc(C(F)(F)F)c1 (as salt: trifluoroacetic acid salt) [Example 112],126 °C
17,N=C(N)c1cccc(CNC(=O)c2c(Cl)c3ccccc3n2Cc2cccc(C(=N)N)c2)c1 (as salt: trifluoroacetic acid salt) [Example 115],227 °C
18,N=C(N)c1cccc(Cn2c(C(=O)NCc3cc(Cl)cc(Cl)c3)cc3c(O)cccc32)c1 (as salt: trifluoroacetic acid salt) [Example 120],117 °C
19,COC(=O)c1cccc(CNC(=O)c2cc3c(O)cccc3n2Cc2cccc(C(=N)N)c2)c1 (as salt: trifluoroacetic acid salt) [Example 132],95 °C
20,N=C(N)c1ccc(Cn2c(C(=O)NC(c3ccccc3)c3ccncc3)cc3ccccc32)cc1.O=C(O)C(F)(F)F.O=C(O)C(F)(F)F (racemic),150 °C
21,COc1cccc2c1cc(C(=O)NC(c1ccccc1)c1ccncc1)n2Cc1cccc(C(=N)N)c1.O=C(O)C(F)(F)F.O=C(O)C(F)(F)F (racemic),105 °C
22,"COc1cccc2c1cc(C(=O)NC(c1ccccc1)c1cc[n+](C)cc1)n2Cc1cccc(C(=N)N)c1.O=C(O)C(F)(F)F.O=C([O-])C(F)(F)F (racemic) [Example 24, (RS)-4-({[1-(3-Amidino-benzyl)-4-methoxy-1H-indole-2-carbonyl]-amino}-phenyl-methyl)-1-methyl-pyridinium trifluoroacetate trifluoroacetic acid salt]",135 °C
23,"Cc1cccc2c1cc(C(=O)NCc1ccc([N+](C)(C)C)cc1)n2Cc1cccc(C(=N)N)c1.O=C(O)C(F)(F)F.O=C([O-])C(F)(F)F [Example 35, [4-({[1-(3-Amidino-benzyl)-4-methyl-1H-indole-2-carbonyl]-amino}-methyl)-phenyl]-trimethyl-ammonium trifluoroacetate trifluoroacetic acid salt]",81 °C (dec.)
24,"COc1cccc2c1cc(C(=O)NCCc1ccncc1)n2Cc1cccc(/C(N)=N/O)c1 [Example 49, 1-(3-Hydroxyamidino-benzyl)-4-methoxy-1H-indole-2-carboxylic acid 2-(4-pyridyl)-ethyl amide]",220 to 222 °C
25,"COc1cccc2c1cc(C(=O)NCCc1ccc(O)cc1)n2Cc1cccc(/C(N)=N/O)c1 [Example 51, 1-(3-Hydroxyamidino-benzyl)-4-methoxy-1H-indole-2-carboxylic acid 2-(4-hydroxy-phenyl)-ethyl amide]",173 to 175 °C (dec.)
26,"CN(C)c1ccc(CNC(=O)c2cc3cc(Cl)ccc3n2Cc2cccc(/C(N)=N/O)c2)cc1 [Example 52, 1-(3-Hydroxyamidino-benzyl)-5-chloro-1H-indole-2-carboxylic acid (4-dimethylamino)-benzyl amide]",200 °C (dec.)
27,"N/C(=N\O)c1cccc(COC(=O)c2cc3ccccc3n2Cc2cccc(/C(N)=N/O)c2)c1 [Example 53, 1-(3-Hydroxyamidino-benzyl)-1H-indole-2-carboxylic acid (3-hydroxyamidino-benzyl)ester]",114 to 116 °C
